Data reported in US12227480B1 (priority 2023, dated 2025).

Tested on: Mycobacterium tuberculosis H37Rv (ATCC: 25177)
Assay: Resazurin Microplate Assay (REMA), anti-tubercular activity, H37Rv strain
Type: cell-based
Conditions: 192 h, read-out: Anti-tubercular activity against Mycobacterium tuberculosis (MIC), H37Rv

## Cc1cc[n+](CC(=O)c2ccc(F)cc2)cc1.[Br-] [Compound 3d, 1-(2-(4-Fluorophenyl)-2-oxoethyl)-4-methylpyridin-1-ium bromide]
  MIC: 8 µg/mL
